# ChEMBL document CHEMBL1201861, “Genomics of Drug Sensitity in Cancer screening data, Wellcome Trust Sanger Institute”
# How the values were obtained:
# Experiment in all cases: cells
# Calu-6 = assay type: functional, cell-based, Homo sapiens; conditions: Homo sapiens, Calu-6;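 note: growth of human Calu-6 cells, read out by a cell viability assay, IC50 marking inhibition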
# Description: SANGER: Inhibition of human Calu-6 cell growth in a cell viability assay.
# DoTc2-4510 = assay type: functional, cell-based, Homo sapiens; conditions: Homo sapiens, DoTc2-4510
# ES1 = assay type: functional, cell-based, Homo sapiens; conditions: Homo sapiens, ES1;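 note: growth inhibition of ES1 cells, read out with a cell viability assay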
# Description: SANGER: Inhibition of human ES1 cell growth in a cell viability assay.
# ES8 = assay type: functional, cell-based, Homo sapiens; conditions: Homo sapiens, ES8;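 note: growth inhibition of human ES8 cells, read out with a cell viability assay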
# Description: SANGER: Inhibition of human ES8 cell growth in a cell viability assay.
# G-401 = assay type: functional, cell-based, Homo sapiens; conditions: Homo sapiens, G-401
# Description: SANGER: Inhibition of human G-401 cell growth in a cell viability assay.
# GCIY = assay type: functional, cell-based, Homo sapiens; conditions: Homo sapiens, GCIY;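 note: growth inhibition of the human GCIY cell line, read out by a cell viability assay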
# Description: SANGER: Inhibition of human GCIY cell growth in a cell viability assay.
# HCC1187 = assay type: functional, cell-based, Homo sapiens; conditions: Homo sapiens, HCC1187;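 note: growth inhibition of HCC1187 cells, read out with a cell viability assay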
# Description: SANGER: Inhibition of human HCC1187 cell growth in a cell viability assay.
# HCE-4 = assay type: functional, cell-based, Homo sapiens; conditions: Homo sapiens, HCE-4;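 note: cell viability assay measuring inhibition of growth in the human HCE-4 cell line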
# Description: SANGER: Inhibition of human HCE-4 cell growth in a cell viability assay.
# HGC-27 = assay type: functional, cell-based, Homo sapiens; conditions: Homo sapiens, HGC-27;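 note: growth inhibition of human HGC-27 cells, read out in a cell viability assay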
# Description: SANGER: Inhibition of human HGC-27 cell growth in a cell viability assay.
# HOS = assay type: functional, cell-based, Homo sapiens; conditions: Homo sapiens, HOS;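 note: growth inhibition of human HOS cells, read out with a cell viability assay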
# Description: SANGER: Inhibition of human HOS cell growth in a cell viability assay.
# HSC-2 = assay type: functional, cell-based, Homo sapiens; conditions: Homo sapiens, HSC-2;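 note: growth inhibition of human HSC-2 cells, read out by a cell viability assay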
# Description: SANGER: Inhibition of human HSC-2 cell growth in a cell viability assay.
# IGROV-1 = assay type: functional, cell-based, Homo sapiens; conditions: Homo sapiens, IGROV-1;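 note: reduction of IGROV-1 cell growth, read out with a viability assay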
# Description: SANGER: Inhibition of human IGROV-1 cell growth in a cell viability assay.
# J-RT3-T3-5 = assay type: functional, cell-based; conditions: Homo sapiens;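 note: cell viability assay measuring growth inhibition of human J-RT3-T3-5 cells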
# Description: SANGER: Inhibition of human J-RT3-T3-5 cell growth in a cell viability assay.
# KY821 = assay type: functional, cell-based; conditions: Homo sapiens;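 note: growth inhibition of human KY821 cells, read out by a cell viability assay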
# LB373-MEL-D = assay type: functional, cell-based, Homo sapiens; conditions: Homo sapiens, LB373-MEL-D;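 note: growth inhibition of the cell line, read out in a cell viability assay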
# Description: SANGER: Inhibition of human LB373-MEL-D cell growth in a cell viability assay.
# LU-134-A = assay type: functional, cell-based; conditions: Homo sapiens
# Description: SANGER: Inhibition of human LU-134-A cell growth in a cell viability assay.
# LU-99A = assay type: functional, cell-based, Homo sapiens; conditions: Homo sapiens, LU-99A;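 note: growth inhibition of LU-99A cells, read out with a cell viability assay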
# Description: SANGER: Inhibition of human LU-99A cell growth in a cell viability assay.
# MG-63 = assay type: functional, cell-based, Homo sapiens; conditions: Homo sapiens, MG-63;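 note: growth inhibition of human MG-63 cells, read out with a cell viability assay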
# Description: SANGER: Inhibition of human MG-63 cell growth in a cell viability assay.
# MKN-7 = assay type: functional, cell-based, Homo sapiens; conditions: Homo sapiens, MKN-7;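 note: growth inhibition of MKN-7 cells, read out with a cell viability assay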
# Description: SANGER: Inhibition of human MKN7 cell growth in a cell viability assay.
# ML-2 = assay type: functional, cell-based; conditions: Homo sapiens;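 note: growth inhibition of ML-2 cells, measured with a cell viability readout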
# Description: SANGER: Inhibition of human ML-2 cell growth in a cell viability assay.
# NB14 = assay type: functional, cell-based; conditions: Homo sapiens;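 note: growth inhibition of NB14 cells measured with a cell viability assay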
# Description: SANGER: Inhibition of human NB14 cell growth in a cell viability assay.
# NCI-H1648 = assay type: functional, cell-based, Homo sapiens; conditions: Homo sapiens, NCI-H1648;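 note: cell viability assay measuring inhibition of NCI-H1648 cell growth, from the Sanger screening data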
# Description: SANGER: Inhibition of human NCI-H1648 cell growth in a cell viability assay.
# NCI-H1770 = assay type: functional, cell-based; conditions: Homo sapiens;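 note: growth inhibition of NCI-H1770 cells determined with a viability readout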
# Description: SANGER: Inhibition of human NCI-H1770 cell growth in a cell viability assay.
# NCI-H2052 = assay type: functional, cell-based, Homo sapiens; conditions: Homo sapiens, NCI-H2052;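 note: growth inhibition of NCI-H2052 cells, read out with a cell viability assay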
# Description: SANGER: Inhibition of human NCI-H2052 cell growth in a cell viability assay.
# NCI-H2170 = assay type: functional, cell-based, Homo sapiens; conditions: Homo sapiens, NCI-H2170;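 note: cell viability assay measuring growth inhibition of human NCI-H2170 cancer cells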
# NCI-H2405 = assay type: functional, cell-based, Homo sapiens; conditions: Homo sapiens, NCI-H2405;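 note: growth inhibition of the human cell line, read out with a cell viability assay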
# Description: SANGER: Inhibition of human NCI-H2405 cell growth in a cell viability assay.
# NCI-H2452 = assay type: functional, cell-based, Homo sapiens; conditions: Homo sapiens, NCI-H2452;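 note: growth inhibition of NCI-H2452 cells, read out with a cell viability assay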
# Description: SANGER: Inhibition of human NCI-H2452 cell growth in a cell viability assay.
# NCI-H441 = assay type: functional, cell-based; conditions: Homo sapiens;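 note: growth inhibition of NCI-H441 cells, read out with a cell viability assay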
# Description: SANGER: Inhibition of human NCI-H441 cell growth in a cell viability assay.
# NCI-H510A = assay type: functional, cell-based; conditions: Homo sapiens;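 note: growth inhibition of NCI-H510A cells, read out with a cell viability assay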
# NCI-H596 = assay type: functional, cell-based, Homo sapiens; conditions: Homo sapiens, NCI-H596;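 note: growth inhibition of NCI-H596 cells, read out with a cell viability assay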
# Description: SANGER: Inhibition of human NCI-H596 cell growth in a cell viability assay.
# NCI-H810 = assay type: functional, cell-based, Homo sapiens; conditions: Homo sapiens, NCI-H810;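 note: IC50 reflects inhibition of cancer cell line growth, read out with a cell viability assay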
# Description: SANGER: Inhibition of human NCI-H810 cell growth in a cell viability assay.
# NKM-1 = assay type: functional, cell-based; conditions: Homo sapiens;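 note: growth inhibition of NKM-1 cells, read out with a cell viability assay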
# OAW-42 = assay type: functional, cell-based, Homo sapiens; conditions: Homo sapiens, OAW-42;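 note: growth inhibition of OAW-42 cells, read out with a cell viability assay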
# Description: SANGER: Inhibition of human OAW-42 cell growth in a cell viability assay.
# OCUB-M = assay type: functional, cell-based, Homo sapiens; conditions: Homo sapiens, OCUB-M;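 note: growth inhibition of the cancer cell line, read out through a cell viability assay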
# Description: SANGER: Inhibition of human OCUB-M cell growth in a cell viability assay.
# PFSK-1 = assay type: functional, cell-based, Homo sapiens; conditions: Homo sapiens, PFSK-1;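 note: cell viability assay measuring how strongly compounds suppress growth of human PFSK-1 cells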
# Description: SANGER: Inhibition of human PFSK-1 cell growth in a cell viability assay.
# RS4-11 = assay type: functional, cell-based; conditions: Homo sapiens;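 note: growth inhibition of RS4-11 cells, read out by a cell viability assay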
# Description: SANGER: Inhibition of human RS4-11 cell growth in a cell viability assay.
# RT-112 = assay type: functional, cell-based, Homo sapiens; conditions: Homo sapiens, RT-112
# SW948 = assay type: functional, cell-based, Homo sapiens; conditions: Homo sapiens, SW948;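 note: growth inhibition of SW948 cells, read out with a cell viability assay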
# Description: SANGER: Inhibition of human SW948 cell growth in a cell viability assay.
# T98G = assay type: functional, cell-based, Homo sapiens; conditions: Homo sapiens, T98G;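 note: growth inhibition of T98G cells, read out by a cell viability assay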
# Description: SANGER: Inhibition of human T98G cell growth in a cell viability assay.
# 647-V = assay type: functional, cell-based, Homo sapiens; conditions: Homo sapiens, 647-V;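 note: growth inhibition of 647-V cells, read out with a cell viability assay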
# Description: SANGER: Inhibition of human 647-V cell growth in a cell viability assay.
# 769-P = assay type: functional, cell-based, Homo sapiens; conditions: Homo sapiens, 769-P
# Description: SANGER: Inhibition of human 769-P cell growth in a cell viability assay.
# A2058 = assay type: functional, cell-based; conditions: Homo sapiens;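 note: reduction of A2058 cell growth, read out with a viability assay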
# Description: SANGER: Inhibition of human A2058 cell growth in a cell viability assay.
# A498 = assay type: functional, cell-based, Homo sapiens; conditions: Homo sapiens, A498;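 note: growth inhibition of human A498 cells, read out with a cell viability assay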
# Description: SANGER: Inhibition of human A498 cell growth in a cell viability assay.
# A673 = assay type: functional, cell-based, Homo sapiens; conditions: Homo sapiens, A673;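 note: growth inhibition of human A673 cells, read out through a cell viability assay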
# Description: SANGER: Inhibition of human A673 cell growth in a cell viability assay.
# A704 = assay type: functional, cell-based, Homo sapiens; conditions: Homo sapiens, A704;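 note: growth inhibition of human A704 cells, read out with a cell viability assay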
# Description: SANGER: Inhibition of human A704 cell growth in a cell viability assay.
# AU565 = assay type: functional, cell-based, Homo sapiens; conditions: Homo sapiens, AU565;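 note: cell viability assay measuring growth inhibition of human AU565 cells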
# Description: SANGER: Inhibition of human AU565 cell growth in a cell viability assay.
# ASPC1 = assay type: functional, cell-based, Homo sapiens; conditions: Homo sapiens, ASPC1;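 note: growth inhibition of AsPC-1 cells, read out with a cell viability assay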
# Description: SANGER: Inhibition of human AsPC-1 cell growth in a cell viability assay.
# CAL-12T = assay type: functional, cell-based, Homo sapiens; conditions: Homo sapiens, CAL-12T;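 note: growth inhibition of human CAL-12T cells, read out with a cell viability assay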
# Description: SANGER: Inhibition of human CAL-12T cell growth in a cell viability assay.
# YAPC = assay type: functional, cell-based, Homo sapiens; conditions: Homo sapiens, YAPC;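 note: growth inhibition of YAPC cells, measured with a cell viability assay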
# Description: SANGER: Inhibition of human YAPC cell growth in a cell viability assay.
# YKG-1 = assay type: functional, cell-based, Homo sapiens; conditions: Homo sapiens, YKG-1;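 note: cell growth inhibition, read out with a viability assay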
# Description: SANGER: Inhibition of human YKG-1 cell growth in a cell viability assay.
# COLO-680N = assay type: functional, cell-based, Homo sapiens; conditions: Homo sapiens, COLO-680N;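 note: cell viability assay used to measure inhibition of COLO-680N cell growth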
# Description: SANGER: Inhibition of human COLO-680N cell growth in a cell viability assay.
structure (smiles),measurement,setting,value
CN(C)C/C=C/C(=O)Nc1cc2c(Nc3ccc(F)c(Cl)c3)ncnc2cc1O[C@H]1CCOC1 [AFATINIB],IC50,Calu-6,> 500 nM
same,IC50,DoTc2-4510,322 nM
same,IC50,ES1,> 500 nM
same,IC50,ES8,> 500 nM
same,IC50,G-401,> 500 nM
same,IC50,GCIY,> 500 nM
same,IC50,HCC1187,> 500 nM
same,IC50,HCE-4,> 500 nM
same,IC50,HGC-27,> 500 nM
same,IC50,HOS,> 500 nM
same,IC50,HSC-2,168 nM
same,IC50,IGROV-1,260 nM
same,IC50,J-RT3-T3-5,> 500 nM
same,IC50,KY821,20.6 nM
same,IC50,LB373-MEL-D,> 500 nM
same,IC50,LU-134-A,> 500 nM
same,IC50,LU-99A,> 500 nM
same,IC50,MG-63,> 500 nM
same,IC50,MKN-7,> 500 nM
same,IC50,ML-2,248 nM
same,IC50,NB14,> 500 nM
same,IC50,NCI-H1648,442 nM
same,IC50,NCI-H1770,103 nM
same,IC50,NCI-H2052,> 500 nM
same,IC50,NCI-H2170,37.3 nM
same,IC50,NCI-H2405,> 500 nM
same,IC50,NCI-H2452,> 500 nM
same,IC50,NCI-H441,> 500 nM
same,IC50,NCI-H510A,> 500 nM
same,IC50,NCI-H596,> 500 nM
same,IC50,NCI-H810,> 500 nM
same,IC50,NKM-1,> 500 nM
same,IC50,OAW-42,> 500 nM
same,IC50,OCUB-M,> 500 nM
same,IC50,PFSK-1,> 500 nM
same,IC50,RS4-11,> 500 nM
same,IC50,RT-112,> 500 nM
same,IC50,SW948,> 500 nM
same,IC50,T98G,> 500 nM
same,IC50,647-V,> 500 nM
same,IC50,769-P,> 500 nM
same,IC50,A2058,> 500 nM
same,IC50,A498,407 nM
same,IC50,A673,> 500 nM
same,IC50,A704,> 500 nM
same,IC50,AU565,85 nM
same,IC50,ASPC1,> 500 nM
same,IC50,CAL-12T,> 500 nM
same,IC50,YAPC,> 500 nM
same,IC50,YKG-1,> 500 nM
same,IC50,COLO-680N,> 500 nM
CC(=O)O[C@@]12CO[C@@H]1C[C@H](O)[C@@]1(C)C(=O)[C@H](O)C3=C(C)[C@@H](OC(=O)[C@H](O)[C@@H](NC(=O)OC(C)(C)C)c4ccccc4)C[C@@](O)([C@@H](OC(=O)c4ccccc4)[C@H]21)C3(C)C [DOCETAXEL],IC50,Calu-6,4.47 nM
same,IC50,DoTc2-4510,> 10 nM
same,IC50,ES1,0.77 nM
same,IC50,ES8,0.26 nM
same,IC50,G-401,1.27 nM
same,IC50,GCIY,> 10 nM
same,IC50,HCE-4,2.47 nM
same,IC50,HGC-27,0.471 nM
same,IC50,HOS,0.782 nM
same,IC50,HSC-2,0.755 nM
same,IC50,IGROV-1,> 10 nM
same,IC50,J-RT3-T3-5,2.35 nM
same,IC50,KY821,5.51 nM
same,IC50,LB373-MEL-D,> 10 nM
same,IC50,LU-134-A,> 10 nM
same,IC50,LU-99A,> 10 nM
same,IC50,MG-63,1.51 nM
same,IC50,MKN-7,> 10 nM
same,IC50,ML-2,> 10 nM
same,IC50,NB14,0.26 nM
same,IC50,NCI-H1648,6.01 nM
same,IC50,NCI-H1770,3.42 nM
same,IC50,NCI-H2052,7.27 nM
same,IC50,NCI-H2170,5.35 nM
same,IC50,NCI-H2405,> 10 nM
same,IC50,NCI-H2452,2.16 nM
same,IC50,NCI-H441,> 10 nM
same,IC50,NCI-H510A,0.336 nM
same,IC50,NCI-H596,> 10 nM
same,IC50,NCI-H810,6.22 nM
same,IC50,NKM-1,> 10 nM
same,IC50,OAW-42,> 10 nM
same,IC50,OCUB-M,4.38 nM
same,IC50,PFSK-1,0.657 nM
same,IC50,RS4-11,> 10 nM
same,IC50,RT-112,1.19 nM
same,IC50,SW948,> 10 nM
same,IC50,T98G,1.17 nM
same,IC50,647-V,1.84 nM
same,IC50,769-P,> 10 nM
same,IC50,A2058,0.544 nM
same,IC50,A498,0.278 nM
same,IC50,A673,2.35 nM
same,IC50,A704,> 10 nM
same,IC50,AU565,1.81 nM
same,IC50,ASPC1,6.83 nM
same,IC50,CAL-12T,3.76 nM
same,IC50,YAPC,> 10 nM
same,IC50,YKG-1,0.707 nM
same,IC50,COLO-680N,5.08 nM
